Patent publication US20230183310A1, “Polypeptide Compounds and Use Thereof in the Prevention or Treatment of Diabetes or Diabetic Complications” (Shenzhen Turier Biotech Co., Ltd., priority 2020, published 2023)
*1 amine or outer side, *2 acyl side, *3 side chain or, on linkers, in order; H or OH if unused. Primed or numbered codes have the meaning given here. Where no end group is shown, it is not given here. Side-chain parts run from the residue outwards. [ ]: non-standard residue; d: D form. The star is where a group is joined. C20 diacid = O=C(O)CCCCCCCCCCCCCCCCCCC(=O)*; γGlu = O=C(O)[C@H](CCC(=O)[*:2])N[*:1]; Iva = CC[C@](C)(N)C(=O)O; PEG2′ = not defined here; Aib = CC(C)(N)C(=O)O

Assays:
db/db diabetic mice [1] = test: Dose determination in 8-week-old db/db diabetic mice: blood glucose and body weight; assay type: in vivo; details: for subsequent blood glucose course (long-lasting effect): from day 3 / after days 3-5
Method: The db/db mice diabetic model (purchased from Nanjing University-Nanjing Institute of Biomedical Research, about 8 weeks, and blood glucose and body weight were measured to ensure the smooth subsequent experiments) was obtained, and the model mice were randomly divided into 12 groups (including polypeptide compounds 3, 8, 13, 15, semaglutide and physiological saline groups), with 6 mice in each group and no difference in basal body weight and blood glucose. Each group was injected subcutaneously with compound 3 (80 and 120 μg/kg, 2 groups), compound 8 (80 and 120 μg/kg, 2 groups), compound 13 (80 and 120 μg/kg, 2 groups), compound 15 (80 and 120 μg/kg, 2 groups), semaglutide (80 and 120 μg/kg, 2 groups) and physiological saline (DN group: normal mice born in the same litter; DC group: db/db mice control group) every day or every other day.
Blood glucose and body weight of mice were measured after daily administration and 6 h fasting on alternate days.

FN protein (fibronectin) = test: Western blot of FN protein in high glucose-induced in vitro renal fibrosis cell model; assay type: cell-based, rat; details: 10 μM; 30 mmol/L glucose; 48 h; mesangial and renal epithelial cells
Source text: Hyperglycemia and increased production of glycosylation end products will cause morphological changes such as proliferation and hypertrophy of glomerular mesangial cells, increase in extracellular matrix (ECM) and mesangial expansion, which will eventually lead to the loss of its physiological function. […] Therefore, this example used high glucose to induce MCS mesangial cells and NRK renal epithelial cells to construct an in vitro renal fibrosis cell model for screening medicaments useful for the treatment of diabetic nephropathy. The renal mesangial cell strain GMC and glomerular epithelial cells mTEC used in this example were both cells kept in the applicant's laboratory (both were extracted from rat renal primary cells) and cultured in low sugar medium containing 10% fetal bovine serum. The cells were starved with serum-free culture medium for 24 h when grew to 70% confluence. The cells were divided into the following 9 groups by adjusting the glucose concentration as follows: […]

C57BL/6J mice = test: Oral glucose tolerance (OGTT), repeated glucose loads followed to 24 h after one s.c. dose; assay type: in vivo; details: 100 μg/kg subcutaneously; for long-acting hypoglycemic effects compared to semaglutide: four OGTT curves (0-22 h)
Method: Eight-week-old male C57BL/6J mice (Model Animal Research Center, Nanjing University) were randomly grouped according to similar blood glucose (assessed by blood samples obtained from the tail tip), with six mice in each group. […] The initial blood samples (fasted blood glucose levels) were obtained after about 4 h. Subsequently, an oral dose of glucose (2 g/kg) was administered and the animals were placed back in their holding cages (t=0). […] The oral dose of glucose was then repeated at 8 h of administration, 12 h of administration and […], and blood glucose changes were detected and followed until 24 hours. The data were processed using the software GraphPadPrism to make a line graph of blood glucose changes, and the area under the curve was calculated to obtain an AUC graph, and the results are shown in FIG. 1.

db/db diabetic mice [2] = test: Treatment of 12-week-old db/db diabetic mice: blood glucose, OGTT, ITT, ALT/AST, diabetic nephropathy indices; assay type: in vivo; details: for weekly blood glucose (hypoglycemic effect): FIG. 4A, blood glucose at normal levels at week 1; for weekly blood glucose (hypoglycemic effect) / improving oral glucose tolerance (OGTT) / improving insulin resistance (ITT) / ALT and AST in serum (hepatoprotective function): 120 μg/kg s.c. daily; for improving oral glucose tolerance (OGTT): FIG. 4B, week 4; for improving insulin resistance (ITT): FIG. 4C, week 5; for ALT and AST in serum (hepatoprotective function): FIG. 4D; for H&E staining of kidneys: glomerular adhesion, ameliorative and therapeutic effects: FIG. 5B; for H&E staining of kidneys: glomerular adhesion, ameliorative and therapeutic effects / PAS staining of kidneys: ameliorative effects on glomerular mesangial region / collagen content (Sirius red, FN and α-SMA staining of kidneys): after 8 weeks; for H&E staining of kidneys: glomerular adhesion, ameliorative and therapeutic effects / collagen content (Sirius red, FN and α-SMA staining of kidneys): compared to semaglutide, SAR425899 and MED C18-acid groups; for PAS staining of kidneys: ameliorative effects on glomerular mesangial region: FIG. 5C; for collagen content (Sirius red, FN and α-SMA staining of kidneys): FIGS. 5D to 5F
Method: Normal mice born in the same litter; DC group: db/db mice control group). Blood glucose and body weight were measured on alternate days after daily administration of the medicament, and water intake and food intake were measured once a week. OGTT was measured at week 4, insulin tolerance (ITT) was measured at week 5, metabolism of mice was examined using mouse metabolic cages at weeks 6-7, and various serological and pathological indices were taken at week 8.
Type 2-diabetes mice were characterized by obesity, insulin resistance, hyperglycemia, dyslipidemia and hepatic fat vacuole-like degeneration.
After 6 weeks of medical treatment, the mice was collected for urine using metabolic cages, and the protein content in the urine was detected using relevant kits. After 7 weeks of medical treatment, the material was taken and blood was used to detect serological indicators such as blood creatinine and urea nitrogen.

[3] = FIG. 3A, daily s.c., 120 μg/kg, vs saline DC group
[4] = FIG. 3B, every other day s.c., 80 μg/kg
[5] = FIG. 3B, every other day s.c., 120 μg/kg

Row | Substance | long-acting hypoglycemic effects compared to semaglutide (C57BL/6J mice) | weekly blood glucose (hypoglycemic effect) (db/db diabetic mice [2]) | improving oral glucose tolerance (OGTT) (db/db diabetic mice [2]) | improving insulin resistance (ITT) (db/db diabetic mice [2]) | ALT and AST in serum (hepatoprotective function) (db/db diabetic mice [2]) | H&E staining of kidneys: glomerular adhesion, ameliorative and therapeutic effects (db/db diabetic mice [2]) | PAS staining of kidneys: ameliorative effects on glomerular mesangial region (db/db diabetic mice [2]) | collagen content (Sirius red, FN and α-SMA staining of kidneys) (db/db diabetic mice [2]) | further results
1 | His-Aib-Gln-Gly-Thr-Phe-Thr-Ser-Asp-Lys(PEG2-PEG2-γGlu-CO(CH2)18CO2H)-Ser-Lys-Tyr-Leu-Asp-Glu-Arg-Ala-Ala-Gln-Asp-Phe-Iva-Gln-Trp-Leu-Leu-Asp-Gly-Gly-Pro-Ser-Ser-Gly-Aib-Pro-Pro-Pro-Ser-NH2 (H[Aib]QGTFTSDK([PEG2′-PEG2′-γGlu-C20 diacid])SKYLDERAAQDF[Iva]QWLLDGGPSSG[Aib]PPPS-NH2) [Compound 8] | superior and significant long-acting hypoglycemic effects | significant hypoglycemic effects | performed more excellent | performed more excellent | more excellent hepatoprotective functions | more significant | more significant | improved more significantly | body weight (weight-lowering effect) (db/db diabetic mice [1]; FIG. 3A, daily s.c.): better weight-lowering effect; blood glucose (glucose-lowering effect) (db/db diabetic mice [1]; FIG. 3A, daily s.c., 80 μg/kg): significant glucose-lowering effect; blood glucose (glucose-lowering effect) (db/db diabetic mice [1]; [3]): good glucose-lowering effect in 3-5 days; overall hypoglycemic effect (db/db diabetic mice [1]; FIG. 3B, every other day s.c.): more excellent hypoglycemic effect; blood glucose (hypoglycemic effect) (db/db diabetic mice [1]; [4]): first decrease and then increase, and the overall hypoglycemic effect was significant; blood glucose (hypoglycemic effect) (db/db diabetic mice [1]; [5]): good hypoglycemic effect on days 3-5; subsequent blood glucose course (long-lasting effect) (db/db diabetic mice [1]; [5]): the blood glucose did not change much; FN protein expression (Western blot) (FN protein (fibronectin)): inhibited FN expression more significantly
2 | His-(D-Ser)-Gln-Gly-Thr-Phe-Thr-Ser-Asp-Lys(PEG2-PEG2-CO(CH2)18CO2H)-Ser-Lys-Tyr-Leu-Glu-Aib-Lys-Ala-Ala-Gln-Asp-Phe-Val-Glu-Trp-Leu-Lys-Ala-Gly-Gly-Pro-Ser-Ser-Gly-Ala-Pro-Pro-Pro-Ser-NH2 (H[dS]QGTFTSDK([PEG2′-PEG2′-C20 diacid])SKYLE[Aib]KAAQDFVEWLKAGGPSSGAPPPS-NH2) [Compound 2] | superior and significant long-acting hypoglycemic effects | – | – | – | – | – | – | – | –
3 | His-(D-Ser)-Gln-Gly-Thr-Phe-Thr-Ser-Asp-Tyr-Ser-Lys-Lys(PEG2-PEG2-γGlu-(CH2)17COOH)-Leu-Asp-Ser-Glu-Arg-Ala-Arg-Asp-Phe-Val-Ala-Trp-Leu-Val-Ala-Gly-Gly-NH2 (H[dS]QGTFTSDYSKKLDSERARDFVAWLVAGG-NH2; not fully specified (residue 13); printed as His-(D-Ser)-Gln-Gly-Thr-Phe-Thr-Ser-Asp-Tyr-Ser-Lys-Lys(PEG2-PEG2-γGlu-(CH2)17COOH)-Leu-Asp-Ser-Glu-Arg-Ala-Arg-Asp-Phe-Val-Ala-Trp-Leu-Val-Ala-Gly-Gly-NH2) [MED C18-acid, compound reported in the prior art, synthesized by the applicant, reference compound] | – | significant hypoglycemic effects | – | – | – | – | – | – | –
4 | His-Aib-Gln-Gly-Thr-Phe-Thr-Ser-Asp-Lys(Gly-Gly-Ser-Gly-Ser-Gly-γGlu-CO(CH2)18-COOH)-Ser-Lys-Tyr-Leu-Asp-Glu-Arg-Ala-Ala-Gln-Asp-Phe-Iva-Gln-Trp-Leu-Leu-Asp-Gly-Gly-Pro-Ser-Ser-Gly-Aib-Pro-Pro-Pro-Ser-NH2 (HXQGTFTSDKSKYLDERAAQDFXQWLLDGGPSSGXPPPS; Aib, Iva; γGlu-C20 diacid lipidation; C-terminal amide; (2)..(2) X=Aib; (10)..(10) A side chain of Lys is linked to -Gly-Gly-Ser-Gly-Ser-Gly-AGlu-CO(CH2)18-COOH; (23)..(23) X=Isovaline; (35)..(35) X=Aib) [Compound 16] | – | significant hypoglycemic effects | performed more excellent | performed more excellent | more excellent hepatoprotective functions | more significant | more significant | improved more significantly | –
5 | His-(D-Ser)-Gln-Gly-Thr-Phe-Thr-Ser-Asp-Lys(Gly-Gly-Ser-Gly-Ser-Gly-γGlu-CO(CH2)18-COOH)-Ser-Lys-Tyr-Leu-Glu-Aib-Lys-Ala-Ala-Gln-Asp-Phe-Val-Glu-Trp-Leu-Lys-Ala-Gly-Gly-Pro-Ser-Ser-Gly-Ala-Pro-Pro-Pro-Ser-NH2 (HXQGTFTSDKSKYLEXKAAQDFVEWLKAGGPSSGAPPPS; D-Ser, Aib; γGlu-C20 diacid lipidation; C-terminal amide; (2)..(2) X=D-Ser; (10)..(10) A side chain of Lys is linked to -Gly-Gly-Ser-Gly-Ser-Gly-AGlu-CO(CH2)18-COOH; (16)..(16) X=Aib) [Compound 14] | superior and significant long-acting hypoglycemic effects | significant hypoglycemic effects | performed more excellent | performed more excellent | more excellent hepatoprotective functions | more significant | more significant | improved more significantly | FN protein expression (Western blot) (FN protein (fibronectin)): inhibited FN expression more significantly
6 | His-(D-Ser)-Gln-Gly-Thr-Phe-Thr-Ser-Asp-Leu-Ser-Lys-Gln-Lys(CO(CH2)14CH3)-Glu-Ser-Lys-Ala-Ala-Gln-Asp-Phe-Ile-Glu-Trp-Leu-Lys-Ala-Gly-Gly-Pro-Ser-Ser-Gly-Ala-Pro-Pro-Pro-Ser-NH2 (HXQGTFTSDLSKQKESKAAQDFIEWLKAGGPSSGAPPPS; D-Ser; palmitoyl lysine; C-terminal amide; SAR425899; (2)..(2) X=D-Ser; (14)..(14) A side chain of Lys is linked to -CO(CH2)14CH3) [compound reported in the prior art, synthesized by the applicant, reference compound] | – | significant hypoglycemic effects | – | – | – | – | – | – | –
7 | His-Aib-Gln-Gly-Thr-Phe-Thr-Ser-Asp-Lys(PEG2-PEG2-γGlu-CO(CH2)18CO2H)-Ser-Lys-Tyr-Leu-Glu-Aib-Lys-Ala-Ala-Gln-Asp-Phe-Val-Glu-Trp-Leu-Lys-Ala-Gly-Gly-Pro-Ser-Ser-Gly-Ala-Pro-Pro-Pro-Ser-NH2 (H[Aib]QGTFTSDK([PEG2′-PEG2′-γGlu-C20 diacid])SKYLE[Aib]KAAQDFVEWLKAGGPSSGAPPPS-NH2) [Compound 1] | superior and significant long-acting hypoglycemic effects | – | – | – | – | – | – | – | –
8 | Semaglutide [reference compound] | – | significant hypoglycemic effects | – | – | – | – | – | – | blood glucose (glucose-lowering effect) (db/db diabetic mice [1]; [3]): better hypoglycemic effect, after which it was maintained at a more stable normoglycemic level, but its hypoglycemic effect was not significant; blood glucose (hypoglycemic effect) (db/db diabetic mice [1]; [4]): the hypoglycemic effect was not significant; blood glucose (hypoglycemic effect) (db/db diabetic mice [1]; [5]): the hypoglycemic effect was not significant; subsequent blood glucose course (long-lasting effect) (db/db diabetic mice [1]; [5]): rebounded on day 3, and its long-lasting effect was not enough; AUC / improvement in glucose tolerance in all four OGTT curves (C57BL/6J mice; four OGTT curve periods (0-22 h), compared to control PBS): significantly reduced (P<0.05)
